Measurements from patent US20070010458A1, “Drugs for the arthritis treatment” (priority 2002, published 2007).

Key:
[1] = tested on: human chondrocytes; assay: Cell proliferation of TNFα-treated human chondrocytes ([3H]-thymidine incorporation); format: cell-based; details: TNFα 80 ng/ml, compound 100 μM, 24 hours, control without TNFα = 100, vehicle + TNFα = 50
Description: (§1) Human chondrocytes were isolated by collagenase digestion from knee cartilage collected from patients undergoing knee replacement surgery. Only primary culture was used to avoid phenotype change of human chondrocytes. TNFα (80 ng/ml) was added to all but control cells. Test compounds were dissolved at a concentration 0.02% (w/v) in DMSO (vehicle).
(§2) The test compounds were incubated with cells at a 100 μM concentration for 24 hours.
Cell proliferation was determined by measuring [^3H]-thymidine incorporated into newly synthesized DNA. Cell viability was assessed by MTS assay kit.

[2] = tested on: proteoglycan synthesis in human chondrocytes; assay: Proteoglycan synthesis in TNFα-treated human chondrocytes ([35S]-sulfate incorporation); format: cell-based; details: TNFα 80 ng/ml, compound 100 μM, 24 hours, control without TNFα = 100, vehicle + TNFα = 22
Description: as §1, §2
Proteoglycan synthesis was determined by [^35S]-sulfate incorporation. Cells and supernatant were extracted with 4M guanidinium chloride and purified by Sephadex colums chromatography. The amount of [^35S]-sulfate was measured by liquid scintillation counter. Results were normalized by the amount of Dna in the sample and expressed as CPM/μg DNA (CPM=count per minute).

[3] = tested on: TGFβ1 production in cellular chondrocyte cultures; assay: Stimulation of TGFβ1 production in chondrocyte cultures (CCL-64 growth inhibition bioassay of conditioned medium); format: cell-based; details: calf chondrocyte primary cultures, compound 10^−5 M, 24 hours; untreated control = 100
Description: The primary cultures have been kept in a DMEM culture medium (Dulbecco's modified Eagle medium) (high glucose) containing bovine fetal serum (10% vol.) and antibiotics at 37° C. and in air/CO2 atmosphere (95%/5% vol.) until reaching the culture confluence. A cell sample is kept as a control and not treated with the tested compounds.
At the end the cells have been washed 3 times with a medium free from serum and added with BSA (bovine serum albumin, 200 μg/ml) for 5, 30 and 60 minutes respectively and then incubated in a medium devoid of serum (1 ml) for further 6 hours. The conditioned medium has been collected, centrifuged and kept at −70° C. until the use.
Before the experiment, 0.5 ml of cellular culture supernatant have been acidified with HCl (0.1 ml, 1 N) and incubated at room temperature for 10 min, then neutralized with NaOH/HEPES (0.1 ml NaOH 1.2N/0.5 M).
CCL-64 cellular cultures lines in a proliferative state have been prepared as described in Jennings J. C., J. Cell. Physiol.
At the twentieth hour ^3H-timidine (0.5 μCi/ml), a cellular proliferation marker, which is incorporated in the DNA of the new cells has been added to the cultures. The cultures have then been incubated for 4 hours.
At the end the cells have been cold fixed (5° C.) with trichloroacetic acid 5% v/v, washed with the same solution and dissolved in NaOH (0.1 N). […] From the amount of incorporated timidine it is shown the amount of TGF-β1. The data reported in Table 1 are expressed in percentage of TGFβ1 produced in the samples treated with the tested compounds, compared with the untreated control.

[4] = Hepatic tolerability in rats (plasma AST, ALT, bilirubin); format: in vivo; details: i.p., NO-paracetamol 1.4 g/Kg or paracetamol 1.16 g/Kg, plasma 6 hours after administration, % of control group (100%)
Description: Groups of No. 10 rats have been treated i.p. with NO-paracetamol (1.4 g/Kg i.p.) or with paracetamol (1.16 g/Kg) or with the carrier (0.9% w/v NaCl containing 20% v/v di tween-20) (control group).
After 6 hours from the administration, the animals have been sacrificed, the blood has been collected and the plasma analyzed to determine the aspartate aminotransferase (AST) and alanine aminotransferase (ALT) and bilirubin concentrations. The results are reported in Table 2 and have been expressed in pecentage with respect to the values obtained in the control group (100%).

[5] = tested on: TGF-β release in mouse spleen lymphocytes; assay: TGF-β release in mouse spleen lymphocytes (in vitro, ELISA); format: cell-based; details: 10 μg/ml endotoxin, compound 50 μM, 24 hours, placebo = 100
Description: (§3) Spleen lymphocytes were prepared as it follows. Mice were killed by an overdose of ether, and spleens were collected and maintained in a sterile RPMI medium (Sigma-Aldrich) containing 0.5% (vol/vol) L-glutamine and 0.5% (vol/vol) sterile endotoxin-free fetal calf serum (FCS). The spleens were opened and the content (whole cells) collected and diluted with RPMI.
(§4) After repeated washings, cells were suspended in 10 ml of RPMI containing 1% (vol/vol) streptomycin and 1% (vol/vol) penicillin. The suspension was then incubated at 37° C. for 24 hours, in an O2/CO2 atmosphere (95%/5% v/v). Monocytes were eliminated by adhesion, and lysis of red cells was obtained by suspension in a solution 0.15 mol/liter NH4Cl and 1 mmol/liter KHCO3. The resulting lymphocytes were resuspended in RPMI-FCS, incubated for 30 minutes at 37° C. with anti-FAS, anti-FASL, or anti-IL2 receptor monoclonal antibodies, and then washed twice with RPMI-FCS. Cells were then incubated with the FITC-conjugated secondary antibody for 30 mins at 4° C., washed twice, and resuspended in PBS/formaldehyde (0.5%). Control samples were treated with the FITC-conjugated secondary antibody only. Stained cells were analysed on a flow cytofluorimeter. Cells were gated using forward vs side scatter to exclude dead cells and debris.
(§5) Cells were transferred in plate and then 10 μg/ml endotoxin and each of the following compounds at a concentration of 50 μM added: • Placebo (no compound added); • Flurbiprofen; • NO-Flurbiprofen; the compound was prepared as described in ex. F1, above; • Indomethacin; • NO-indomethacin; the compound was prepared as described in the example on page 45 of WO 98/09948; • then it was incubated for 24 hours • IL-6 and TGF-β released in cell supernatant was measured by ELISA assay, taking as 100% release that of placebo group.

[6] = tested on: IL-6 release in mouse spleen lymphocytes; assay: IL-6 release in mouse spleen lymphocytes (in vitro, ELISA); format: cell-based; details: 10 μg/ml endotoxin, compound 50 μM, 24 hours, placebo = 100
Description: as §3, §4, §5

[7] = tested on: type II collagen mRNA; assay: Type II collagen mRNA steady-state levels in human articular chondrocytes; format: cell-based; details: human articular chondrocytes in hypoxia (5% v/v O2), with or without IL-1β, compound 10^−5M, 48 h
Description: The steady-state levels of mRNA for type II collagen and TGF-β type II receptor (TβRII) was evaluated in human articular chondrocytes (HAC), cultured in hypoxia (5% v/v O2). The cells were treated or not with interleukin-1β (IL-1β) an agent favouring OA pathology, and NO-NSAIDs, or the corresponding NSAIDs at 10^−5M for 48 h.

[8] = tested on: IL-6 release in human monocytes; assay: IL-6 release in human monocytes (ex-vivo study after oral subacute treatment); details: healthy subjects, 100 mg twice a day oral for seven days; monocytes 4 hours after last treatment, 10 μg/ml endotoxin 24 hours, ELISA; placebo = 100
Description: Twenty-four healthy subjects of both sexes were enrolled and randomised into three groups of 8 subjects each. Each group was administered as it follows: • placebo: vehicle (0.5% aqueous suspension of carboxymethyl cellulose); • flurbiprofen: 100 mg twice a day; • NO-flurbiprofen: 100 mg twice a day; the compound was prepared as described in example F1. The treatment lasted seven consecutive days (oral subacute treatment).
Monocytes from whole blood samples obtained before and 4 hours after the last treatment were prepared. Monocytes were extracted by positive selection using paramagnetic beads loaded with anti-CD11 antibody. Cells were then incubated with 10 μg/ml endotoxin for 24 hours, and IL-6 released in cell supernatant measured by ELISA assay.
Results are given as % in the confront of IL-6 release obtained in the placebo group.

SMILES	Proteoglycan synthesis % in the confront of control [2]	% of produced TGFβ1 [3]	TGF-β release % in the confront of placebo [5]	IL-6 release % in the confront of placebo [6]	further results
CC(C)Cc1ccc(C(C)C(=O)O)cc1 (stereo not drawn) [Ibuprofen]	24%				Cell proliferation % in the confront of control [1]: 48%
O=C(Cc1ccccc1Nc1c(Cl)cccc1Cl)OCCCCO[N+](=O)[O-] [NO-Diclofenac, 2-[(2,6-dichlorophenyl)amino]benzenacetic acid 4-nitrooxybutyl ester]		550%			
CC(=O)Oc1ccccc1C(=O)Oc1cccc(CO[N+](=O)[O-])c1 [NO-Aspirin, 2-acetyloxybenzoic acid 3-nitrooxymethyl phenyl ester]		600%			
CC(=O)Nc1ccc(O)cc1 [Paracetamol]					ALT [4]: 171%; AST [4]: 330%; Bilirubin [4]: 200%
COc1ccc2c(c1)c(CC(=O)Oc1cccc(CO[N+](=O)[O-])c1)c(C)n2C(=O)c1ccc(Cl)cc1 [NO-indomethacin, 1-(4-Chlorobenzoyl)-5-methoxy-2-methyl-1H-indole-3-acetic acid 3-(nitrooxymethyl)phenyl ester]			130%	20%	
CC(C(=O)OCCCCO[N+](=O)[O-])c1ccc(-c2ccccc2)c(F)c1 (stereo not drawn) [NO-Flurbiprofen, 2-fluoro-alpha-methyl[1,1′-biphenyl]-4-acetic acid 4-nitrooxybutylester]	70%	650%	150%	10%	Increase of type II collagen mRNA levels [7]: more than 100%
COc1ccc2c(c1)c(CC(=O)O)c(C)n2C(=O)c1ccc(Cl)cc1 [Indomethacin]			70%	90%	
CC(=O)Oc1ccccc1C(=O)O [Aspirin]		150%			
CC(C(=O)O)c1ccc(-c2ccccc2)c(F)c1 (stereo not drawn) [Flurbiprofen]	26%	120%	115%	100%	IL-6 release % in the confront of placebo [8]: 100%; Increase of type II collagen mRNA levels [7]: no significant effect; Cell proliferation % in the confront of control [1]: 53%
CC(=O)Nc1ccc(OC(=O)CCCO[N+](=O)[O-])cc1 [NO-Paracetamol, 4-nitrooxybutanoic acid 4-acetylaminophenylester]		350%			AST [4]: 160%; Bilirubin [4]: 136%
